The values that follow come from article PMC7068222, “Inhibition of Tyrosinase by Mercury Chloride: Spectroscopic and Docking Studies” (Frontiers in Pharmacology, 2020).

pIC50, pKi: −log10 of the molar value. Read-outs that look alike come from different tables or passages of the source.

The test system of test [1] is tyrosinase (monophenolase and diphenolase activity) in the presence of HgCl2. Nature of the test: Effect of premixing amino acids with HgCl2 on tyrosinase inhibition (protection of enzyme activity). It counts as biochemical, mushroom. As for the experimental part:
According to the results of docking study, we furtherly checked the interactions between HgCl2 and amino acid. We assumed that if HgCl2 indeed binds to the amino acid residues of the enzyme, such as His, Val, Glu, and Ala, premixing the amino acid with HgCl2 would affect the inhibitory effects. Thus, the monophenolase and diphenolase activity of tyrosinase both were determined by adding the mixture of HgCl2 and amino acid. The mixture was prepared just before use by adding an aliquot of 200 μL HgCl2 solution to the equal volume of amino acid solution, and which was allowed to react for 10 mins at room temperature. […] In brief, 5 and 10 mmol/L solutions of His, HgCl2 were prepared beforehand, and the mixture was produced by mixing the His and HgCl2 solutions (10 mmol/L) in the volume ratio of 1:1. The spectra of the samples at the wavelengths between 200 and 800 nm were scanned by using UV spectrophotometer (UV 2550, SHIMADZU).The experiment was repeated three times.

For test [2], the target named is T1, immobilized tyrosinase (Agaricus bisporus, UniProt C7FF04).
T1 construct: purchased Sigma-Aldrich
T1 sequence (C7FF04 1-392 limits assumed): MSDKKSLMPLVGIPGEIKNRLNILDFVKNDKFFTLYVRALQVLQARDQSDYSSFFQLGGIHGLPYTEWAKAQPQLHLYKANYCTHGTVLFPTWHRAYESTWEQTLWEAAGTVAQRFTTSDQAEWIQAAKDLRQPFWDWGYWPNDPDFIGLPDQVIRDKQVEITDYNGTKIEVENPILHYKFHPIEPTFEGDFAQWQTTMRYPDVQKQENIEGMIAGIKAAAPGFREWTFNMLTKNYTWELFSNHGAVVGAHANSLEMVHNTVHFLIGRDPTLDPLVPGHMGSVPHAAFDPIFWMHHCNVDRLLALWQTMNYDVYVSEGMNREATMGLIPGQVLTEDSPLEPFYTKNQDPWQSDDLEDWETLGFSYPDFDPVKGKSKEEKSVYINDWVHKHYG
It counts as biochemical, mushroom. On the procedure: Experiments were conducted to confirm the inhibitory mechanism of HgCl2 on tyrosinase furtherly by using immobilized tyrosinase. In brief, we added 200 µL of diluted tyrosinase (2500 U/mL) to each well of a 24-well polystyrene plate and then covered the plate and incubated it at 4°C overnight to produce immobilized tyrosinase. The plate was brought to room temperature, and we thoroughly decanted the solution from wells and washed the wells two times with PBS to remove the unfixed enzyme. We added 3 mL of inhibitor solution to each well and incubated them at room temperature for 30 mins to assure the fully reaction between the inhibitor and the enzyme, discarding the liquid following by washing the wells two times with PBS to remove the excess inhibitor. Then, 3 mL of PBS was added to each well, and they stood for 10 mins to make the dissociation of inhibitor-tyrosinase complex. WE thoroughly decanted the solution from wells to remove the dissociated inhibitor (the procedure was repeated three times). Finally, 3 mL of substrate (dopa) was added to each well and react at room temperature for 30 mins to test the residual activity of tyrosinase.

In test [3] the target is T2, mushroom tyrosinase (diphenolase activity) (Agaricus bisporus, UniProt C7FF04). It counts as biochemical. Particulars: substrate dopa 0.5 mmol/L, tyrosinase 13.33 U/mL, pH 6.8, 305 K.
Target sequence in this assay (C7FF04 1-392): as the sequence (C7FF04 1-392 limits assumed) above
Protocol: The assays were carried out by using 3 mL of reaction system containing 0.5 mmol/L substrate (dopa) in 50 mmol/L PBS (pH = 6.8) at 305 K. The final concentration of tyrosinase was 13.33 U/mL. […] Relative enzymatic activity (%) = (A1-A3)/A2×100%. The experiment was repeated three times. The IC50 value was calculated as the concentration (leading to achieve 50% inhibition) according to the equation, which is obtained by curve fitting of the enzyme activity versus the concentrations of inhibitor.
Test [4] addresses T3, tyrosinase (Agaricus bisporus, UniProt C7FF04).
T3 construct: purchased Sigma-Aldrich
Kind of test: Intrinsic fluorescence quenching of tyrosinase. The class given is binding, mushroom. The note with it: for Kq (quenching rate constant): Kq = Ksv/τ0, τ0 = 10^-8 s. As for the experimental part:
The fluorescence emission spectra were obtained using Spectrofluorometer FS5 (Edinburgh Instruments, England) equipped with a 150 W xenon lamp and a thermostat bath. We added a 2.0 mL aliquot of tyrosinase solution (400 U/mL) to the quartz cuvette (1 cm path length) and gradually added 2 mmol/L solution of HgCl2 to give concentrations ranged from 0 to 400 μmol/L. After five-minute incubation periods, fluorescence in the range of 290–500 nm was measured while the excitation wavelength was fixed at 280 nm. All the fluorescence data collected from these experiments were corrected for absorption of excitation light and re-absorption of emitted light according to the following equation: ([Wang et al., 2015])
where F c and F m represent the corrected and measured fluorescence, respectively. A1 and A2 are the absorbance of HgCl2 at excitation and emission wavelengths, respectively.
To identify the interaction mechanism of HgCl2 on tyrosinase, the data of fluorescence quenching were presented in the form of a Stern-Volmer plot, using the following equation:
(4) F0/F=1+Kqτ0[Q]=1+Ksv[Q]
where, F 0 and F represent the steady-state fluorescence intensities in the absence and presence of HgCl2 (quencher), respectively, [Q] denotes the concentration of HgCl2, K q is the quenching rate constant of the biomolecule (K q = K sv/τ0), K sv is the Stern–Volmer dynamic quenching constant, and τ0 is the average lifetime of the fluorophore in the absence of quencher (τ0 = 10^-8 s). The value of K sv determined by the linear regression plot of F0/F vs. [Q] at 298 and 304 K were (2.14 ± 0.05) × 10^4 and 1.83 ± 0.03 × 10^4 L/mol, respectively. […] K sv values decreased gradually with the increase of the temperatures, which manifested that the fluorescence quenching of tyrosinase by HgCl2 was a static quenching process ([Lin et al., 2018]).
For static quenching interactions, if there are similar and independent sites in biological molecules, the apparent binding constants (K a) and the number of binding sites (n) can be obtained from the following equation:
(5) logF0−F/F=logKa+nlog[Q]

Test [5] concerns the target T4, mushroom tyrosinase (monophenolase activity) (Agaricus bisporus, UniProt C7FF04).
T4 construct: purchased Sigma-Aldrich
It counts as biochemical. As for the experimental part: The method was modified based on the previous description ([Chen et al., 2016]). […] The appropriate blanks (containing both tyrosine and HgCl2 but without tyrosinase) were tested and subtracted to correct the absorbance.

The target of test [6] is T2, mushroom tyrosinase (diphenolase activity). Kind of test: Kinetic analysis of inhibition mechanism and type (enzyme-concentration plots, Lineweaver-Burk plot, secondary plot). It counts as biochemical. More on the design: purchased Sigma-Aldrich. An excerpt:
(1) 1/ν=Km/Vmax(1+[I]/Ki)1/[S]+1+[I]/Ki/Vmax and a secondary plot is presented below
(2) In.=[I]/KiVmax+1/Vmax where ν is velocity of the enzyme reaction calculated by a change in absorbance at the wavelength of 475 nm per minute in the absence and presence of HgCl2. K m and K i are the Michaelis–Menten constant and inhibition constant, respectively. The values of K m can be calculated from the equation (1). [I] and [S] are the concentrations of inhibitor and substrate, respectively. In. is the intercept value of the Lineweaver–Burk curve. K i should be calculated by the secondary plot of In. vs. [I].
The relationship between enzyme activity (expressed as the rate of the oxidation reaction) and its concentration (6.67, 13.33, 20, 26.67, and 33.33 U/mL) in the presence of different concentrations of HgCl2 (0, 4.17, 16.67, 33.33, and 66.67 μmol/L) was investigated.
Target sequence in this assay (C7FF04 1-392 limits assumed): as above

Setting [7] is: from plot of log[(F0-F)/F] vs log[Q].

T3 sequence (C7FF04 1-392): as the sequence (C7FF04 1-392 limits assumed) above
T4 sequence (C7FF04 1-392 limits assumed): as above

As to `CC(C)[C@H](N)C(=O)O` [Val, valine], the “effect on protecting the monophenolase activity in the presence of HgCl2” value in test [1] (amino acid premixed with HgCl2) is “no effects”.

On to `C[C@H](N)C(=O)O` [Ala, alanine], for which, in test [1] (amino acid premixed with HgCl2), the “effect on protecting the monophenolase activity in the presence of HgCl2” value is on record as “no effects”.

Consider `N[C@@H](CCC(=O)O)C(=O)O` [Glu, glutamate], for which the “effect on protecting the monophenolase activity in the presence of HgCl2” value in test [1] (amino acid premixed with HgCl2) is reported as “no effects”.

On to `N[C@@H](Cc1c[nH]cn1)C(=O)O` [His, Histidine], for which, in test [1] (His 10.42 μmol/L), the “protecting capability on diphenolase activity in the presence of HgCl2” value came out at 48.83 ± 1.89%. Also, in test [1] (His 666.67 μmol/L), the “protecting capability on diphenolase activity in the presence of HgCl2” value is listed as 83.43 ± 2.56%. Besides, in test [1] (amino acid premixed with HgCl2), the “effect on protecting the diphenolase activity in the presence of HgCl2” value is listed as “significant effect” and the “effect on protecting the monophenolase activity in the presence of HgCl2” value is “protect the monophenolase activity”.

In the case of `CCO` [95% ethanol, ethanol, reference compound], the “Relative activity (%) of immobilized tyrosinase after inhibitor treatment and washing” value in test [2] is on record as 3.34%.

Usually pIC50 stands for the IC50 on a negative log10 scale, so that one unit is a factor of ten. The pKi is the Ki on a negative log10 scale, so that one unit is a factor of ten. With `[Cl][Hg][Cl]` [HgCl2, Mercuric chloride], the pIC50 was 4.11 in test [3] and 4.52 in test [5] (substrate tyrosine 0.5 mmol/L, tyrosinase 33.33 U/mL, pH 6.8, 305 K). Further, the results for the “Ksv (Stern-Volmer quenching constant)” value in test [4] (298 K) and in test [4] (304 K) were “(2.14 ± 0.05) × 10^4 L/mol” and 1.83 ± 0.03 × 10^4 L/mol, respectively. Moreover, the “Kq (quenching rate constant)” value in test [4] (298 K) is given as “(2.14 ± 0.05) × 10^12 L/mol/s”; in test [4] (304 K) it was “(1.83 ± 0.03) × 10^12 L/mol/s”. Further, the “Ka (apparent binding constant)” value in test [4] (setting [7]) is “(2.87 ± 0.02) × 10^4 L/mol”. Moreover, in test [4] (setting [7]), the “n (number of binding sites)” value is on record as 0.96 ± 0.01. In addition, the “lag time of monophenolase reaction at highest inhibitor concentration” value in test [5] (prolonged with increasing inhibitor concentration, without inhibitor 1.44 min (kojic acid series), 2.00 min (HgCl2 series)) was 13.4 min. Further, the “Relative activity (%) of immobilized tyrosinase after inhibitor treatment and washing” value in test [2] (kojic acid and HgCl2 666.67 μmol/L, 30 min incubation, PBS treatment = 100%, substrate dopa) came out at 28.32%. In addition, the “inhibition type (Lineweaver-Burk)” value in test [6] (diphenolase activity, tyrosinase 13.33 U/mL) is “non-competitive inhibition”. In addition, the pKi in test [6] (diphenolase, secondary plot of intercept vs inhibitor concentration, read-out: Ki (inhibition constant)) was 4.53. Also, in test [6] (plots of activity vs enzyme concentration, HgCl2 0-66.67 μmol/L), the “inhibition mechanism (reversibility)” value was “irreversible”.
